Source: patent US11439713B2, “Method for creating a renal injury model to screen molecules for the treatment of renal injury” (BAYER AKTIENGESELLSCHAFT, priority 2017, dated 2022)
Entries after “also recorded” stand apart in the source; their conditions may differ.

Experiments:
Type in all cases: in vivo
[1] = tested on: C57Bl/6 mice; assay: AGISHA model with AngII as injury inducer (ACR in urine); settings: for ACR in urine collected for 4 hours after AngII bolus injections: vs NaCl control group; for ACR in urine collected for 4 hours after first AngII bolus injections, experimental day 1: vs NaCl group
From the text: Five groups with 10-12 mice per group (C57Bl/6, Charles River Laboratories, 6-7 weeks old) were set for one experiment. After delivery, animals remained in a temperature- and light-controlled room with standardized mouse chow and water ad libitum for a one week acclimatization period, following guidelines of local governmental institutions (LANUV Germany). The groups were divided as follows (see FIG. 1): • 1. Control group without AngII bolus injection, but with control saline and additional (oral) administration of drug vehicle (10% ethanol, 40% solutol, 50% water or saline). • 2. AngII group, treated with AngII in normal saline, and drug vehicle. AngII administration occurred in two bolus injections (i.v.+s.c.) of 10 μg (5 μg i.v.+5 μg s.c.), 16 μg (8 μg i.v.+8 μg s.c.) and 20 μg (10 μg i.v.+10 μg s.c.) per mouse, where the first bolus was injected intravenously and the second bolus subcutaneously. The drug vehicle was administered orally.
3. Candidate groups 3 and 4: AngII injection and additional treatment with the investigated drug/drugs. For substance testing, drugs or appropriated vehicles were administered orally, via i.v., s.c., or i.p. Administration occurred prior to or after AngII-injection. For example, investigated drug/drugs were given orally 30 minutes before the induction of the injury. • 4. Group 5 is the positive control group Animals were injected with AngII and treated orally with Losartan 30 mg/kg. Losartan is an AngII receptor blocker AT1 (Pieter B M et al, Pharma. Rev., 1993, Kang P M et al, Progress in Cardiology, 1994).
After AngII injection animals were placed in metabolic cages (Technoplast, Italy) for urine collection for up to 4 hours. At the end of the experiment the urine was analyzed to quantify the ACR. More specifically, the collected urine was analyzed using an automatic analyzer for urinary albumin as well as urinary creatinine (Coban® Integra 400, Roche, Basel, SUI) or using the Mouse albumin ELISA kit (ABCAM, Cambridge, UK). […] The AGISHA model was performed in 3 identical cycles with a one-week break for recovery.
Negative and positive control experiment. To confirm the findings shown in FIG. 2-4, the mode of action in AGISHA was investigated. In the following experiment, three of the animal groups were pre-treated with three different drugs by oral application 30 minutes before administration of injury inducer (see FIG. 5). • 1) Enalapril 10 mg/kg, an angiotensin-converting enzyme (ACE) inhibitor, is standard of care for high blood pressure. It was used as positive modulator control 1 of the renin-angiotensin system (RAS) in the AGISHA model. • 2) Losartan potassium, 30 mg/kg, angiotensin II type I receptor (AT1) antagonist, standard of care for high blood pressure (Kang et al, 1994; Sica D A et al, Clin Parmacokinet., 2005) was used as positive modulator control 2 of the RAS system in the AGISHA model. • 3) Tivozanib, 3 mg/kg, vascular endothelial grow factor receptor tyrosine kinase inhibitor (Campas C et al, Drugs Fut., 2009) was used as negative modulator of the RAS system during AGISHA model. […]
The experiment was performed as described in example 5, except that the sGC stimulator 5-cyclopropyl-2-[1-(2-fluorobenzyl)-1H-pyrazolo[3,4-b]pyridin-3-yl]pyrimidin-4-amine was used for treatment. […] Losartan (30 mg/kg) was used as positive control.

[2] = tested on: mice; assay: GFR-based model with AngII and Sinestrin-FITC (GFR acute modulation); settings: for GFR 2 hrs after AngII bolus injection: vs control group
From the text: Acute GFR modulation is a relevant phenomenon in the field of nephrology (Fergusan and […], Clin. Chem., 58(4), 2012, p. 680-689). GFR is the major readout parameter for chronic kidney disease (CKD) stage assessment (Lopez-Giacoman and Madero, World J Nephrol. 4(1), 2015, 57-73). The GFR is also a very stable and robust physiological parameter that is subject to positive and negative feedback regulation. The following protocol and experimental setup (FIG. 21) was established to model acute GFR modulation. 1. Control group without AngII bolus injection, but with control saline (0.9%)+[…] 150 mg/kg and additional s c administration of 0.9% NaCl (100 μl+100 μl) 2. AngII group, treated with AngII in two bolus injections: First bolus of 20 μg/mouse of AngII in normal saline administered in combination with […] 150 mg/kg, 50 μl+50 μl, injected via tail vein. Second bolus injected s.c. comprising 20 μg AngII, 100 μl. 3. Losartan group was treated orally with 30 mg/kg of Losartan Potassium, 30 min prior to the AngII injury. AngII injury occurred in two bolus injections as described for the AngII group (total 40 μg). 1. Control group without AngII bolus injection, but with control saline (0.9%)+[…] 150 mg/kg and additional s.c. administration of 0.9% NaCl (100 μl+100 μl) 2. AngII group, treated with AngII in two bolus injections: First bolus of 20 μg/mouse of AngII in normal saline administered in combination with […] 150 mg/kg, 50 μl+50 μl, injected via tail vein. Second bolus injected s.c. comprising 30 μg AngII, 100 μl. 3. Losartan group was treated orally with 30 mg/kg of Losartan Potassium, 30 min prior to the AngII injury. AngII injury occurred in two bolus injections as described for the AngII group (total 50 μg). For substance testing, animals were pre-treated with the respective drugs or vehicles 30 min before AngII-injection, via oral gavage, s.c, i.p., or tail vein injection. Subsequently, […] mix bolus was administered to the animals with the tracer (FIG. 21).

[3] = tested on: C57Bl/6/J male mice; assay: GFBI test model with AngII (transcutaneous fluorescence of Ficoll-FITC); settings: for Half-life of the fluorescent molecule in the blood 2 h after AngII bolus injection: vs control
Description: After delivery, C57Bl/6/J male mice remained in a temperature- and light-controlled room with standardized mouse chow and water ad libitum for a one week acclimatization period, following guidelines of local governmental institutions (LANUV Germany). C57Bl/6/J mice (6-7 weeks) received an intravenous mixture of FITC-FICOLL 70 kDa (Sigma) and 10 μg AngII mix 100 μL, followed by a 10 μg (100 μL) subcutaneous AngII bolus as described in example 1. The groups were divided as follows, see FIG. 17:
1. Control group without AngII bolus injection, but with control saline 0.9%+Ficoll-FITC 150 mg/kg and additional s c administration of a bolus of NaCl 0.9%.
2. AngII group, treated with AngII in two bolus injections (10 μg/mouse of AngII+Ficoll-FITC, 150 mg/kg, both dissolved in 0.9% NaCl, first bolus injected i.v. via tail vein (5 μg AngII) and a second subcutaneous bolus injection (5 μg AngII).
3. AngII group, treated with AngII in two bolus injections (20 μg/mouse total AngII+Ficoll-FITC, 150 mg/kg 150 mg/kg, both dissolved in 0.9% NaCl, first bolus injected i.v. via tail vein (10 μg AngII) and a second subcutaneous bolus injection (10 μg AngII).
TF of the FICOLL-FITC was detected via the transcutaneous method developed by MediBeacon Inc. (MediBeacon Inc., Mo., USA). In brief: all experimental animals were shaved with standard mask anesthesia 1 h before the determination of TF for the FICOLL-FITC Immediately after the injury induction the portable transcutaneous measurement device was placed on the left dorsal back side of the animal for 2 hours. The results were analyzed with the MediBeacon Inc. software. […] The decay of the Ficoll-FITC dye was visualized as a flat line, with a half-life of ca. 396 minutes.

[4] = tested on: mice; assay: GFR-based model with AVP and Sinestrin-FITC; settings: pre-treatment with Losartan 30 mg/kg; AVP 35 μg
Description: A similar setup (FIG. 23) was used with AVP (Sigma-Aldrich, Mo.) at a dose of 35 μg, i.e. using a first bolus with 15 μg AVP, injected i.v. in combination with Sinestrin-FITC 150 mg/kg (50 ul+50 ul) and using a second bolus of 20 μg AVP, 100 uL, injected i.v. As before GFR, was decreased by AVP compared with the control group.

[5] = oral 30 minutes before AngII 10 μg i.v.+10 μg s.c., Enalapril 10 mg/kg, Losartan potassium 30 mg/kg, Tivozanib 3 mg/kg, FIG. 6
[6] = pre-treatment orally, AngII 10 μg i.v.+10 μg s.c., OGT 2115 40 mg/kg, Losartan Potassium 30 mg/kg, FIG. 10

O=C(O)CCCCN(CCc1cc(F)ccc1OCc1ccc(-c2ccc(C(F)(F)F)cc2)cc1)Cc1ccc(C(=O)O)cc1 [4-({(4-carboxybutyl)[2-(5-fluoro-2-{[4′-(trifluoromethyl)biphenyl-4-yl]methoxy}phenyl)ethyl]amino}methyl)benzoic acid]
Reduction of ACR compared with the control group ([1]; 3 mg/kg orally prior to AngII 10 μg i.v.+10 μg s.c.): 71% | AngII induced ACR, mean±SD ([1]; 3 mg/kg orally prior to AngII 10 μg i.v.+10 μg s.c., urine 4 hours): 35 ± 26 µg/mg

Asp-Arg-Val-Tyr-Ile-His-Pro-Phe (DRVYIHPF; printed: Asp-Arg-Val-Tyr-Ile-His-Pro-Phe) [AngII, human angiotensin II peptide hormone, used as renal injury inducer]
GFR 2 hrs after AngII bolus injection ([2]; total 40 μg AngII (20 μg i.v.+20 μg s.c.)): decreased but not significantly decreased; also recorded: decrease in GFR | GFR 2 hrs after AngII bolus injection ([2]; total 50 μg AngII (20 μg i.v.+30 μg s.c.)): highly significant reduction of the GFR; also recorded: significantly reduced | Half-life of the fluorescent molecule in the blood 2 h after AngII bolus injection ([3]; AngII 10 μg): decrease in half-life of the fluorescent molecule was significant | Half-life of the fluorescent molecule in the blood 2 h after AngII bolus injection ([3]; AngII 20 μg): decrease in half-life of the fluorescent molecule was significant | Half-life of FICOLL-FITC transcutaneous fluorescence, representative curve ([3]; animals treated with AngII, control (0.9% NaCl) ca. 396 minutes): ca. 180 min | ACR in urine collected for 4 hours after AngII bolus injections ([1]; AngII 8 μg i.v.+8 μg s.c.): significant induction of ACR | ACR in urine collected for 4 hours after AngII bolus injections ([1]; AngII 10 μg i.v.+10 μg s.c.): significant induction of ACR; also recorded: significant increase of ACR | ACR on third experimental day after changed order of stimuli ([1]; cross AGISHA, AngII 5 μg dose (group 1) and 10 μg dose (group 2)): dose dependent increase of injury | ACR in urine collected for 4 hours after first AngII bolus injections, experimental day 1 ([1]; cross AGISHA, AngII 5 μg i.v.+5 μg s.c.): significantly increased | ACR in urine collected for 4 hours after first AngII bolus injections, experimental day 1 ([1]; cross AGISHA, AngII 10 μg i.v.+10 μg s.c.): significantly increased | ACR on day 2, 24 hours after first induction of acute glomerular injury ([1]; cross AGISHA, after AngII 5 μg or 10 μg dose): For none of the groups the analysis shows a detectable ACR

CCCCc1nc(Cl)c(CO)n1Cc1ccc(-c2ccccc2-c2nn[nH]n2)cc1 [Losartan]
Effect on AngII induced loss of GFR ([2]; Losartan Potassium 30 mg/kg orally 30 min prior to AngII total 40 μg): AngII bolus had no effect on the GFR; also recorded: able to completely reverse the effect | Effect on AngII induced loss of GFR ([2]; Losartan Potassium 30 mg/kg orally 30 min prior to AngII total 50 μg): restored the GFR; also recorded: significant recovery of AngII induced loss of GFR | Reduction of AngII induced ACR ([1]; Losartan 30 mg/kg orally, positive control, AngII 10 μg i.v.+10 μg s.c.): around 90% | Effect on AngII-induced ACR induction ([1]; Losartan 30 mg/kg orally, FIG. 2 experiment): AngII bolus had no effect on ACR; also recorded: prevents AngII-induced ACR induction | Effect on ACR induced by AngII [1, 5]: highly significant reduction of AngII induced injury | Effect on ACR induced by AngII ([1]; oral 30 minutes before AngII 10 μg i.v.+10 μg s.c., Enalapril 10 mg/kg, Losartan potassium 30 mg/kg, Tivozanib 3 mg/kg, FIG. 6, listed as Losartan potassium): strongest effect | Effect on ACR induced by AngII [1, 6]: highly significant reduction of AngII induced injury | Effect on AVP induced loss of GFR [4]: did not restore the normal GFR; also recorded: did not restore or prevent the AVP induced loss of GFR

O=C(O)Cc1ccc2oc(-c3ccc(NC(=O)/C=C/c4ccc(Br)cc4)c(F)c3)nc2c1 [OGT2115]
Effect on ACR induced by AngII [1, 6]: significantly reduced

COc1cc2nccc(Oc3ccc(NC(=O)Nc4cc(C)on4)c(Cl)c3)c2cc1OC [Tivozanib]
Effect on ACR induced by AngII [1, 5]: no effect on ACR induced by AngII

CCOC(=O)[C@H](CCc1ccccc1)N[C@@H](C)C(=O)N1CCC[C@H]1C(=O)O [Enalapril]
Effect on ACR induced by AngII [1, 5]: significantly reduced
